Results reported in US20120220562A1, “Anti-Viral Compounds” (ABBOTT LABAORATORIES, priority 2011, published 2012).

System: HCV 1b-Con1 replicon
Assay: HCV 1b-Con1 replicon assay in the presence of 5% FBS
Assay type: cell-based
Details: Hepatitis C virus

Row | Compound | EC50
1 | COC(=O)N[C@H](C(=O)N1CCC[C@H]1c1nc2cc([C@H]3CC[C@H](c4cc5nc([C@@H]6CCCN6C(=O)[C@@H](NC(=O)OC)C(C)C)[nH]c5cc4F)N3c3cc(F)c(N4CCC(c5ccc(C)s5)CC4)c(F)c3)c(F)cc2[nH]1)C(C)C [Example 4.61, methyl {(2S)-1-[(2S)-2-{5-[(2R,5R)-1-{3,5-difluoro-4-[4-(5-methyl-2-thienyl)piperidin-1-yl]phenyl}-5-{6-fluoro-2-[(2S)-1-{(2S)-2-[(methoxycarbonyl)amino]-3-methylbutanoyl}pyrrolidin-2-yl]-1H-benzimidazol-5-yl}pyrrolidin-2-yl]-6-fluoro-1H-benzimidazol-2-yl}pyrrolidin-1-yl]-3-methyl-1-oxobutan-2-yl}carbamate] | < 0.1 nM
2 | COC(=O)N[C@H](C(=O)N1CCC[C@H]1c1nc(-c2ccc(-c3ccn(-c4ccc(-c5c[nH]c([C@@H]6CCCN6C(=O)[C@@H](NC(=O)OC)C(C)C)n5)cc4)c3-c3ccc(C(C)(C)C)cc3)cc2)c[nH]1)C(C)C [Example 7.1, methyl {(2S)-1-[(2S)-2-(4-{4-[2-(4-tert-butylphenyl)-1-(4-{2-[(2S)-1-{(2S)-2-[(methoxycarbonyl)amino]-3-methylbutanoyl}pyrrolidin-2-yl]-1H-imidazol-4-yl}phenyl)-1H-pyrrol-3-yl]phenyl}-1H-imidazol-2-yl)pyrrolidin-1-yl]-3-methyl-1-oxobutan-2-yl}carbamate] | < 0.1 nM
3 | COC(=O)N[C@H](C(=O)N1CCC[C@H]1c1nc2ccc([C@H]3CC[C@H](c4ccc5nc([C@@H]6CCCN6C(=O)[C@@H](NC(=O)OC)C(C)C)[nH]c5c4)N3c3ccc(OCC(F)F)cc3)cc2[nH]1)C(C)C [Example 4.11, methyl {(2S)-1-[(2S)-2-{6-[(2R,5R)-1-[4-(2,2-difluoroethoxy)phenyl]-5-{2-[(2S)-1-{(2S)-2-[(methoxycarbonyl)amino]-3-methylbutanoyl}pyrrolidin-2-yl]-1H-benzimidazol-6-yl}pyrrolidin-2-yl]-1H-benzimidazol-2-yl}pyrrolidin-1-yl]-3-methyl-1-oxobutan-2-yl}carbamate] | < 0.1 nM
4 | COC(=O)N[C@H](C(=O)N1CCC[C@H]1c1nc2cc([C@H]3CC[C@H](c4ccc5[nH]c([C@@H]6CCCN6C(=O)[C@@H](NC(=O)OC)C(C)C)nc5c4)N3c3ccc(OC4COCOC4)cc3)ccc2[nH]1)C(C)C [Example 2.3, methyl {(2S)-1-[(2S)-2-{5-[(2R,5R)-1-[4-(1,3-dioxan-5-yloxy)phenyl]-5-{2-[(2S)-1-{(2S)-2-[(methoxycarbonyl)amino]-3-methylbutanoyl}pyrrolidin-2-yl]-1H-benzimidazol-5-yl}pyrrolidin-2-yl]-1H-benzimidazol-2-yl}pyrrolidin-1-yl]-3-methyl-1-oxobutan-2-yl}carbamate] | 1 to 10 nM
5 | COC(=O)N[C@H](C(=O)N1CCC[C@H]1c1nc2ccc([C@H]3CC[C@H](c4ccc5nc([C@@H]6CCCN6C(=O)[C@@H](NC(=O)OC)C(C)C)[nH]c5c4)N3c3cc(F)c(N4CCC5(CCCC5)CC4)c(F)c3)cc2[nH]1)C(C)C [Example 2.11, methyl {(2S)-1-[(2S)-2-{5-[(2R,5R)-1-[4-(8-azaspiro[4.5]dec-8-yl)-3,5-difluorophenyl]-5-{2-[(2S)-1-{(2S)-2-[(methoxycarbonyl)amino]-3-methylbutanoyl}pyrrolidin-2-yl]-1H-benzimidazol-5-yl}pyrrolidin-2-yl]-1H-benzimidazol-2-yl}pyrrolidin-1-yl]-3-methyl-1-oxobutan-2-yl}carbamate] | < 0.1 nM
6 | COC(=O)N[C@H](C(=O)N1CCC[C@H]1c1nc2cc([C@H]3CC[C@H](c4ccc5[nH]c([C@@H]6CCCN6C(=O)[C@@H](NC(=O)OC)C(C)C)nc5c4)N3c3ccc(N4CCC(c5ccccc5)CC4)cc3)ccc2[nH]1)C(C)C [Example 4.25, methyl {(2S)-1-[(2S)-2-(5-{(2R,5R)-5-{2-[(2S)-1-{(2S)-2-[(methoxycarbonyl)amino]-3-methylbutanoyl}pyrrolidin-2-yl]-1H-benzimidazol-5-yl}-1-[4-(4-phenylpiperidin-1-yl)phenyl]pyrrolidin-2-yl}-1H-benzimidazol-2-yl)pyrrolidin-1-yl]-3-methyl-1-oxobutan-2-yl}carbamate] | 0.1 to 1 nM
